Measured values reported in patent US20240016784A1, “Y BOX BINDING PROTEIN 1 INHIBITORS” (Oregon Health & Science University, priority 2020, published 2024).

What was measured:
[1] = system: YB-1, TMSB10, SUMO2 and PMSB2 proteins; assay: Western blot of CETSA targets in OVCAR8 cells; assay type: cell-based, human; conditions: 1, 2.5 and 5 μM for 12 h
Procedure: Out of six targets identified, we selected proteins whose thermal shift is above 5° in the presence of SU056 for further study of protein expression after treatment. […] To study the in vivo effects of SU056 treatment, we analyzed ID8 tumor xenograft samples via immunohistochemistry (IHC). […] To identify the broader effects of SU056 on YB-1 and its downstream protein/activity in different ovarian cancer cell lines, we selected six different cell lines and treated them with SU056 (2.5 μM) for 12 h. Cells were analyzed for YB-1 and CD44 expression and Multidrug resistance 1 (MDR1, ABC pump mediated efflux). […] OVCAR4, OVCAR8, and SKOV3 cells were treated with SU056 (1, 2.5, and 5 μM) for 3, 6, 12, and 24 h and YB-1 expression was measured using YB-1 ELISA. […]
Immunoblotting: Once 70% confluency of OC cells plated in 100 mm cell culture was obtained, dishes were treated with a respective concentration of SU056 for a respective time. […] Proteins were detected using Immobilon® Crescendo Western HRP Substrate (Millipore, Germany) and visualized on an IVIS Lumina Imaging System (Perkin Elmer, Waltham, MA).
(§1) FIGS. 4A-4E: SU056 inhibits YB-1. […] FIG. 4C) Respective OC cells were treated with 2.5 μM SU056 for 12 h and YB-1 & CD44 expression and multidrug resistance activity was measured as described in the ‘method’ section. […]

Pharmacokinetics study = assay type: in vivo; conditions: injection of 20 mg/kg, intraperitoneal, mouse
Procedure: In a pharmacokinetics study in vivo, injection of 20 mg/kg SU056 led to a maximum serum concentration of 28.19 μg/mL with a T1/2 of ˜45 min. We then tested the synergism of paclitaxel and SU056 co-treatment in vivo in NOD-SCID mice implanted with OVCAR8 OC tumors as described above. Mice were given daily treatment of SU056 (10 mg/kg) and weekly treatment of paclitaxel (5 mg/kg) were administered intraperitoneally. […] This likely resulted from decreased paclitaxel efflux from OVCAR8 cells in the presence of SU056.
Pharmacokinetics study: SU056 Plasma concentration was determined by mass quantification analysis using an Agilent 6490 Funnel triple quadrupole (QQQ) mass spectrometer equipped with an Agilent 1290 infinity II UHPLC. An analytical C18 column, ZORBAX C18 (Eclipse Plus, 2.1×50 mm, 1.8 μm particle size) was used. The mobile phase was composed of 60% water buffered with 0.1% formic acid and 4 mM ammonium formate and 40% acetonitrile buffered with 0.1% formic acid. […] The precursor ion [M+H]+ and product ion for SU056 were monitored at m/z 370.0 and m/z 274.2, respectively. And the precursor ion [M+H]+ and product ion for IS were monitored at m/z 338.1 and m/z 260, respectively. […]
FIG. 10: Pharmacokinetics of SU056. […] After injection plasma was collected at respective time point and was analyzed using LC MS/MS as described in method.

[2] = system: protein translation associated molecules; assay: Western blot of translation associated molecules in TNBC cells; assay type: cell-based; conditions: 12 and 24 hr; MDA-MB-231, MDA-MB-468, SUM 159
Procedure: FIGS. 12A-12C. TNBC cells were treated for 12 and 24 hr and total cell lysate were prepared. SDS-PAGE and western blot analyses were performed for translation associated molecules. Beta-actin were probed to ensure equal protein loading.

[3] = system: Multidrug resistance 1 (MDR1, ABC pump mediated efflux); assay: Multidrug Resistance Assay (fluorometric MDR assay); assay type: cell-based; conditions: 2.5 μM for 12 h; six different OC cell lines
Procedure: Out of six targets identified, we selected proteins whose thermal shift is above 5° in the presence of SU056 for further study of protein expression after treatment. […] To study the in vivo effects of SU056 treatment, we analyzed ID8 tumor xenograft samples via immunohistochemistry (IHC). […] To identify the broader effects of SU056 on YB-1 and its downstream protein/activity in different ovarian cancer cell lines, we selected six different cell lines and treated them with SU056 (2.5 μM) for 12 h. Cells were analyzed for YB-1 and CD44 expression and Multidrug resistance 1 (MDR1, ABC pump mediated efflux). […] Finally, we tested the time kinetics and dose-dependent effects of SU056 on YB-1 expression. OVCAR4, OVCAR8, and SKOV3 cells were treated with SU056 (1, 2.5, and 5 μM) for 3, 6, 12, and 24 h and YB-1 expression was measured using YB-1 ELISA. […] 5 μM treatment for 24 h inhibited YB-1 completely (100%) in all three OC cells (FIG. 4E). […]
as §1, with “section. The % inhibition was calculated and compared to the control for the respective cell line.” for “section.”

## O=C1OCC2=C1C(c1cccc(F)c1)c1cc3c(cc1N2CCO)OCO3 (centres unmarked) [SU056, 9-(3-fluorophenyl)-5-(2-hydroxyethyl)-6,9-dihydro-[1,3]dioxolo[4,5-g]furo[3,4-b]quinolin-8(5H)-one]
[1]
  protein expression by Western blot: inhibits the YB-1, TMSB10, SUMO2 and PMSB2 proteins in a dose-dependent manner
Pharmacokinetics study
  maximum serum concentration: 28.19 µg/mL
Pharmacokinetics study; plasma, ip
  half-life: ~45 min
[2]
  protein translation associated molecules (western blot): inhibited the protein translation associated molecules
[3]
  decrease in MDR expression: 41-63%
